Laboratory results reported in publication PMC9668928, “Zandelisib (ME-401) in Japanese patients with relapsed or refractory indolent non-Hodgkin’s lymphoma: an open-label, multicenter, dose-escalation phase 1 study” (International Journal of Hematology, 2022).
“Also recorded” adds a separate entry of the source. Marks after values point to notes of the source that are not given here.

Tests used:
[1] = Phase 1 study: plasma pharmacokinetics, non-compartmental analysis; assay type: in vivo, human; conditions: for pre-dose concentration, mean ± SD: 60 mg daily; for median tmax: after single and multiple doses
Source text: The primary endpoint was the safety [number of patients with treatment-emergent adverse events (TEAEs), based on Common Terminology Criteria for Adverse Events version 5.0] and tolerability (including laboratory values, vital signs, and electrocardiogram performance) of zandelisib in Japanese patients. Hepatobiliary disorder, aspartate/alanine (AST/ALT) increased, diarrhea/colitis, organizing pneumonia, stomatitis, or rash were defined as irAEs in this manuscript. Secondary endpoints included PK (plasma concentrations and PK parameters) and the efficacy of zandelisib. Blood samples for PK evaluation were collected at pre-dose, 1.5, 3, 5, 8, 10, 12 (optional), and 24 h post-dose on Cycle 1 day 1 and Cycle 2 day 1, and at pre-dose on Cycle 1 days 8, 15, and 22. The PK parameters for Cycle 1 day 1 and Cycle 2 day 1 were calculated for each patient by non-compartmental analysis. PK parameters included maximum plasma drug concentration (Cmax), area under the plasma concentration–time curve (AUC) from time zero to the last measurable point (AUC0–t), the AUC from time zero to infinity (AUC0-inf), and terminal half-life (t1/2).

PI3Kδ signaling pathway = tested on: PI3Kδ signaling pathway; parameters: method as in PMID 21378270, PMID 21803855, PMID 20959606, PMID 31506873; conditions: read-out: half maximal inhibitory concentration [IC50]; cited from earlier work
basophil activation = tested on: basophil activation; parameters: method as in PMID 30458930; conditions: 60 mg/day; cited from earlier work
[2] = tested on: patients with B-cell malignancies; conditions: phase 1b; cited from earlier work

For `CN1CCC(c2ccccc2CC(C)(C)Nc2nc(N3CCOCC3)nc(-n3c(C(F)F)nc4ccccc43)n2)CC1` [zandelisib], the “AUC0–inf, mean ± SD” value ([1]; 45 mg, Cycle 1 day 1, n = 2) was 479 ± 112^c ng h/mL, the “t1/2, mean ± SD” value ([1]; 45 mg, Cycle 1 day 1, n = 2) was 12.5 ± 0.8^c h and the “AUC0–t (24 h), mean ± SD” value ([1]; 45 mg, Cycle 1 day 1, n = 3) was 304 ± 90 ng·h/mL. For the same compound, the “Cmax, mean ± SD” value ([1]; 45 mg, Cycle 1 day 1, n = 3) was 27.5 ± 11.0 ng/mL, the “tmax, median (min–max)” value ([1]; 45 mg, Cycle 1 day 1, n = 3) was 3.00 (2.88–9.53) h and the “t1/2, mean ± SD” value ([1]; 45 mg, Cycle 2 day 1, n = 2) was 32.5 ± 10.3^c h. For the same compound, the “AUC0–t (24 h), mean ± SD” value ([1]; 45 mg, Cycle 2 day 1, n = 3) was 601 ± 171 ng·h/mL, the “Cmax, mean ± SD” value ([1]; 45 mg, Cycle 2 day 1, n = 3) was 46.4 ± 6.2 ng/mL and the “tmax, median (min–max)” value ([1]; 45 mg, Cycle 2 day 1, n = 3) was 3.08 (2.95–7.98) h. For the same compound, the “pre-dose concentration, mean ± SD” value ([1]; Cycle 1 Day 8) was 25.2 ± 8.2 ng/mL, the “pre-dose concentration, mean ± SD” value ([1]; Cycle 1 Day 15) was 26.1 ± 9.6 ng/mL and the “pre-dose concentration, mean ± SD” value ([1]; Cycle 1 Day 22) was 28.2 ± 9.5 ng/mL. The “pre-dose concentration, mean ± SD” value ([1]; Cycle 2 Day 1) was 26.2 ± 13.1 ng/mL, the “AUC0–inf, mean ± SD” value ([1]; 60 mg, Cycle 1 day 1, n = 6) was 731 ± 331 ng·h/mL and the “AUC0–t (24 h), mean ± SD” value ([1]; 60 mg, Cycle 1 day 1, n = 6) was 435 ± 161 ng·h/mL. The “Cmax, mean ± SD” value ([1]; 60 mg, Cycle 1 day 1, n = 6) was 36.6 ± 13.2 ng/mL, the “t1/2, mean ± SD” value ([1]; 60 mg, Cycle 1 day 1, n = 6) was 16.4 ± 3.9 h and the “tmax, median (min–max)” value ([1]; 60 mg, Cycle 1 day 1, n = 6) was 3.94 (3.00–7.83) h. For the same compound, the “t1/2, mean ± SD” value ([1]; 60 mg, Cycle 2 day 1, n = 5) was 23.5 ± 10.9^d h, the “AUC0–t (24 h), mean ± SD” value ([1]; 60 mg, Cycle 2 day 1, n = 6) was 974 ± 339 ng·h/mL and the “Cmax, mean ± SD” value ([1]; 60 mg, Cycle 2 day 1, n = 6) was 62.8 ± 19.4 ng/mL. For the same compound, the “tmax, median (min–max)” value ([1]; 60 mg, Cycle 2 day 1, n = 6) was 4.96 (2.83–8.00) h, the “dose proportionality of exposure (Cmax and AUC)” value ([1]; 45 and 60 mg) was “generally dose proportional up to 60 mg/day” and the “exposures (Cmax and AUC) on Cycle 2 Day 1 versus Cycle 1 Day 1” value ([1]; 45 and 60 mg) was 1.5–2 fold. The median tmax ([1]; 45 mg) was 3 h, the median tmax ([1]; 60 mg) was ~ 4.96 h and the “time to PK steady state” value ([1]; daily dosing) was “PK reached steady state by Day 8; also recorded: reached steady state following 7 days of dosing”. The IC50 (PI3Kδ signaling pathway) was 0.6 nM, the “target inhibition at trough plasma concentrations” value (basophil activation) was at least 90% and the “dose-limiting toxicities (DLTs)” value [2] was “No dose-limiting toxicities (DLTs) were reported”. For the same compound, the “maximum tolerated dose (MTD)” value [2] was “not reached”, the “objective response rate (ORR)” value [2] was 79% and the “recommended phase 2 dose (RP2D)” value [2] was 60 mg/day.
